The values below are quoted from earlier work in patent US20170014414A1, “PHARMACEUTICAL COMPOSITION” (ratiopharm GmbH, priority 2014, published 2017).

SMILES strings stand for the structures.

For this data set the following is noted: teaching of WO 2012/088033.

Regarding `CC(=O)Nc1cccc(-n2c(=O)n(C3CC3)c(=O)c3c(Nc4ccc(I)cc4F)n(C)c(=O)c(C)c32)c1.C[S+](C)[O-]` [trametinib DMSO solvate], the photostability result was “can suffer from photo-instability”. For the same compound, under “during the formulation process”, the “stability of the solvate on exposure to moisture” value is “revert to an insoluble desolvated form when exposed to moisture”.

Consider `CC(=O)Nc1cccc(-n2c(=O)n(C3CC3)c(=O)c3c(Nc4ccc(I)cc4F)n(C)c(=O)c(C)c32)c1` [trametinib in its non-solvated form, N-{3-[3-cyclopropyl-5-(2-fluoro-4-iodophenylamino)-6,8-dimethyl-2,4,7-trioxo-3,4,6,7-tetrahydro-2H-pyrido[4,3-d]pyrimidin-1-yl]phenyl}acetamide], for which the “solubility compared with trametinib DMSO solvate” value is “much less soluble than trametinib DMSO solvate”.
